Laboratory results taken from publication PMC6222927, “Aminobenzosuberone Scaffold as a Modular Chemical Tool for the Inhibition of Therapeutically Relevant M1 Aminopeptidases” (Molecules : A Journal of Synthetic Chemistry and Natural …, 2018).

Assays:
P. falciparum rPfAM1 = molecular target: T1, P. falciparum rPfAM1 (Plasmodium falciparum, UniProt O96935); assay: biochemical; format: biochemical
T1 construct: made in house; host or cells: Escherichia coli Rosetta 2 (DE3)
T1 sequence (O96935 1-1085): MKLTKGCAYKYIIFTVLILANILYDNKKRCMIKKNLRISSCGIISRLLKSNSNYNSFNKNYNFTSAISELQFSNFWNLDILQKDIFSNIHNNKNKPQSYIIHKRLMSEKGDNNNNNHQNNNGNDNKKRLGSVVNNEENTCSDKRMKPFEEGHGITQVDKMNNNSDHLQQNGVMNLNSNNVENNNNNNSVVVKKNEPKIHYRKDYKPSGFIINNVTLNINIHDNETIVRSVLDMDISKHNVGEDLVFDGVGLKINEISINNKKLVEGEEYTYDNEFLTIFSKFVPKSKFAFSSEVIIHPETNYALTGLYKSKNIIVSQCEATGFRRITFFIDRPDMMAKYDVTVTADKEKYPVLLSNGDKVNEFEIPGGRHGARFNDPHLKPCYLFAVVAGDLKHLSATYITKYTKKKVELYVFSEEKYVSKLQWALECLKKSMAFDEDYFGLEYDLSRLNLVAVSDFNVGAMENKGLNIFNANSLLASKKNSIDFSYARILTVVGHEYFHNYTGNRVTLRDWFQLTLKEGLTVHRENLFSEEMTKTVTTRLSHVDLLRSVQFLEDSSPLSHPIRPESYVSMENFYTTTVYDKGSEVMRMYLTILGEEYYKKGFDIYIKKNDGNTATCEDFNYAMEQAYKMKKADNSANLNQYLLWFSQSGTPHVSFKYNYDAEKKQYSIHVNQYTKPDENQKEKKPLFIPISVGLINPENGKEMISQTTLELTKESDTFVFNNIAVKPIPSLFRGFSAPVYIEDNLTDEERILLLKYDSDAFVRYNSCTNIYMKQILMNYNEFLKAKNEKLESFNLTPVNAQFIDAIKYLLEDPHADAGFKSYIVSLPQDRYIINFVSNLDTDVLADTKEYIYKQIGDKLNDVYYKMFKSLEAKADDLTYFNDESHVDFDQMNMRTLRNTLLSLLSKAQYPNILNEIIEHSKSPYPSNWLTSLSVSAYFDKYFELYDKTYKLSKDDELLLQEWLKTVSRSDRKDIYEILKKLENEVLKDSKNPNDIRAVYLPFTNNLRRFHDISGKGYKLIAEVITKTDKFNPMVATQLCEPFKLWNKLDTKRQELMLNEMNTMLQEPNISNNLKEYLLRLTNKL
Description: Initial velocities were measured with increasing concentrations of inhibitors and Ki values were determined by Dixon plots in triplicate.

[1] = molecular target: human leukotriene A4 hydrolase (rHsLTA4H); set-up: method as in PMID 21843945; settings: ref 58; cited from earlier work
[2] = molecular target: T2, human endoplasmic reticulum aminopeptidase 2 (rHsERAP2) (Homo sapiens, UniProt Q6P179); assay: rHsERAP2 inhibition, R-AMC fluorigenic substrate; format: biochemical; settings: 50 µM R-AMC
T2 construct: made in house; host or cells: Hi5 insect cells (baculovirus produced in sf9)
Description: (§1) The enzymatic activity of HsERAP1, HsERAP2 and HsIRAP was determined by following the time-dependent increase in fluorescence at 460 nm (excitation: 380 nm) of the fluorigenic substrates L-Leucine-7-amido-4-methyl coumarin (L-AMC; Sigma, Darmstatd, Germany) for HsERAP1 and HsIRAP and L-arginyl-7-amido-4-methyl coumarin (R-AMC; Sigma) for HsERAP2. […] The reaction was followed for 10 min at room temperature and the remaining enzymatic activity was calculated by measuring the slope of the time course.

pAPN from porcine kidney = settings: Dixon plots; cited from earlier work
[3] = molecular target: T3, human endoplasmic reticulum aminopeptidase 1 (rHsERAP1) (Homo sapiens, UniProt Q9NZ08); assay: rHsERAP1 inhibition, L-AMC fluorigenic substrate; format: biochemical; settings: 50 µM L-AMC
T3 construct: made in house; host or cells: Hi5 insect cells (baculovirus produced in sf9)
Description: as §1

E. coli rEcPepN = E. coli rEcPepN (Escherichia coli, UniProt P04825); assay: rEcPepN inhibition, Leu-pNA substrate, Dixon method; format: biochemical
Description: Enzyme activity assays were carried out in 10 mM Tris-HCl buffer at pH 7.5 with 150 mM NaCl, enzyme, 100 µM substrate (Leu-pNA) in a 100 μL reaction at 37 °C. The absorbance was read at 405 nm. Concentrations ranging from 1 nM to 100 μM of inhibitors (dissolved in DMSO) were incubated with each of the enzymes ([…]) for 30 min at 37 °C in a 96 well plate. After addition of the substrate, immediate increase in absorption was measured. All inhibition assays were performed in triplicates and initial velocities were measured. Percentage inhibition and log values of inhibitor concentrations were plotted using SigmaPlot to determine IC50 values. Ki values were determined by the Dixon method. The assay consists of reaction buffer, enzyme and varied concentrations of Leu-pNA (25, 50, 100, 200 and 400 µM). […] Data were plotted as 1/rate versus inhibitor concentration for each substrate concentration and a linear fit was calculated by non-linear regression using SigmaPlot12.5. All the reactions were performed in triplicates, SD values were reported.

P. falciparum rPfAM17 = molecular target: T4, P. falciparum rPfAM17 (Plasmodium falciparum, UniProt Q8IL11); assay: rPfAM17 inhibition, Leu-pNA substrate, Dixon plots; format: biochemical
T4 construct: made in house; host or cells: Escherichia coli Rosetta 2 (DE3)
T4 sequence (Q8IL11 1-605): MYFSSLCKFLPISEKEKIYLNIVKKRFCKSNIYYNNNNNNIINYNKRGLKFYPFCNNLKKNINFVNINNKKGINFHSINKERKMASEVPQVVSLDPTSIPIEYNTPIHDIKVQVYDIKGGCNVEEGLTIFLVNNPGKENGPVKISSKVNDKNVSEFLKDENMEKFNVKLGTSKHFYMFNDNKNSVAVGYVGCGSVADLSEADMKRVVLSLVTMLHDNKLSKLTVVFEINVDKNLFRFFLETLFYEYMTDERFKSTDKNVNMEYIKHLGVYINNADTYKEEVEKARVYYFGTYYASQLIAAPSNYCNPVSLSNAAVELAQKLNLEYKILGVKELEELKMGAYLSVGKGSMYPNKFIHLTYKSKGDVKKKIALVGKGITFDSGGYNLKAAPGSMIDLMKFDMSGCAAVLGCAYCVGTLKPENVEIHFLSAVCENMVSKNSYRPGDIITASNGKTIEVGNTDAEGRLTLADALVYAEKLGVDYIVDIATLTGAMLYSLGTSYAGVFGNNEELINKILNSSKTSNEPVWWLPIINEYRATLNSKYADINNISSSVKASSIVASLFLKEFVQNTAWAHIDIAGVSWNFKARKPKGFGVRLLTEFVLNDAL
Description: Tests were carried out on HP/Agilent UV-Visible diode array spectrophotometer 8453 (HP/Agilent, Santa Clara, CA, USA), at 30 °C in Tris HCl 50 mM pH 7.4 for rPfAM1 and pH 8 for rPfAM17, with a final DMSO concentration of 1%. […]. […] Initial velocities were measured with increasing concentrations of inhibitors and Ki values were determined by Dixon plots in triplicate.

T2 sequence (Q6P179 whole entry): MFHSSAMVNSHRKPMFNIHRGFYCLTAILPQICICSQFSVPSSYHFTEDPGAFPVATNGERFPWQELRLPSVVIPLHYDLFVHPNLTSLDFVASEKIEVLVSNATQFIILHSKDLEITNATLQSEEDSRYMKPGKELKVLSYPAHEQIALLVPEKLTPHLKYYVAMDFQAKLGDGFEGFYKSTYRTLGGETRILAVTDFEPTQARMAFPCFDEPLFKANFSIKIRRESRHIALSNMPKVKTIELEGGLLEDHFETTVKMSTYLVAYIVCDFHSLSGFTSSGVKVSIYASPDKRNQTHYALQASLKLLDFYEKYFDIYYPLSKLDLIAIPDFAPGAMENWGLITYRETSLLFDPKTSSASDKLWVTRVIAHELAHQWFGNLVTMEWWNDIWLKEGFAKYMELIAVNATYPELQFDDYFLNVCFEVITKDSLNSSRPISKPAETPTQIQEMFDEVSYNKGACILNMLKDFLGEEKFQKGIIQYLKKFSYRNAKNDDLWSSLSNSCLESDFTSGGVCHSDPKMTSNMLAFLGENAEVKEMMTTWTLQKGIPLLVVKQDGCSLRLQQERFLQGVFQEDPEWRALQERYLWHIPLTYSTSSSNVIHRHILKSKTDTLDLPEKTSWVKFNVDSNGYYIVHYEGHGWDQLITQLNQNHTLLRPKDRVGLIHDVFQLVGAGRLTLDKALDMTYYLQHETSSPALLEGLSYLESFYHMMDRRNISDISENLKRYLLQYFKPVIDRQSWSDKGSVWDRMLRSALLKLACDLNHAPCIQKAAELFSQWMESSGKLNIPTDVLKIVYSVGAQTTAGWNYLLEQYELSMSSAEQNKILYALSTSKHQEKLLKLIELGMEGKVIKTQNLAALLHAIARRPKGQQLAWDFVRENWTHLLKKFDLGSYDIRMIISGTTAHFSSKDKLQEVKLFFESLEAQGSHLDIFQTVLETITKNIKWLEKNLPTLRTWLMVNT
T3 sequence (Q9NZ08 whole entry): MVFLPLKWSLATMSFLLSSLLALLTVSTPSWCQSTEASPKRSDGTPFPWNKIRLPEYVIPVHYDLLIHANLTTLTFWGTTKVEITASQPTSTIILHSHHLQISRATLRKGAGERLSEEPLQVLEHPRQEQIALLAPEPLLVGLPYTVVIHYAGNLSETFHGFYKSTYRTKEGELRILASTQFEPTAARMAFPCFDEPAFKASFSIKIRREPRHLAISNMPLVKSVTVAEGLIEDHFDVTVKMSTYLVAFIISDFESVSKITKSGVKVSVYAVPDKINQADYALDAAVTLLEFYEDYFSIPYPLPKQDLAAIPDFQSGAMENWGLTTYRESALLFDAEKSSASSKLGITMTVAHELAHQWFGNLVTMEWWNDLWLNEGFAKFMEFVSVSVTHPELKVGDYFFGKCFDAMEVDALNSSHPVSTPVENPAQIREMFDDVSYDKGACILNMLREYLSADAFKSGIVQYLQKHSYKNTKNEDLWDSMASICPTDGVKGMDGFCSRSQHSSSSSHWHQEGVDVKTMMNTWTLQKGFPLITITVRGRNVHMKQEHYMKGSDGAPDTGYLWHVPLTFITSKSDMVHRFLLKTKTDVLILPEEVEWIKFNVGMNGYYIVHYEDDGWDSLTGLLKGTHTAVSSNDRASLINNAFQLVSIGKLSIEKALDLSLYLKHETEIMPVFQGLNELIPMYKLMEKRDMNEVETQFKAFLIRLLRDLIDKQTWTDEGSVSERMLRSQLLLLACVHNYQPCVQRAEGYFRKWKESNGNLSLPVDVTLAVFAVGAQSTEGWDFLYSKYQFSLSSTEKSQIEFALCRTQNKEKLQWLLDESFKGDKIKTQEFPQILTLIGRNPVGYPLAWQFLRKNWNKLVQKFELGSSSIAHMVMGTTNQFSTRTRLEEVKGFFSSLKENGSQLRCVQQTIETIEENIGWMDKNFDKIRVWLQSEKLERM
E. coli rEcPepN, sequence (P04825 whole entry): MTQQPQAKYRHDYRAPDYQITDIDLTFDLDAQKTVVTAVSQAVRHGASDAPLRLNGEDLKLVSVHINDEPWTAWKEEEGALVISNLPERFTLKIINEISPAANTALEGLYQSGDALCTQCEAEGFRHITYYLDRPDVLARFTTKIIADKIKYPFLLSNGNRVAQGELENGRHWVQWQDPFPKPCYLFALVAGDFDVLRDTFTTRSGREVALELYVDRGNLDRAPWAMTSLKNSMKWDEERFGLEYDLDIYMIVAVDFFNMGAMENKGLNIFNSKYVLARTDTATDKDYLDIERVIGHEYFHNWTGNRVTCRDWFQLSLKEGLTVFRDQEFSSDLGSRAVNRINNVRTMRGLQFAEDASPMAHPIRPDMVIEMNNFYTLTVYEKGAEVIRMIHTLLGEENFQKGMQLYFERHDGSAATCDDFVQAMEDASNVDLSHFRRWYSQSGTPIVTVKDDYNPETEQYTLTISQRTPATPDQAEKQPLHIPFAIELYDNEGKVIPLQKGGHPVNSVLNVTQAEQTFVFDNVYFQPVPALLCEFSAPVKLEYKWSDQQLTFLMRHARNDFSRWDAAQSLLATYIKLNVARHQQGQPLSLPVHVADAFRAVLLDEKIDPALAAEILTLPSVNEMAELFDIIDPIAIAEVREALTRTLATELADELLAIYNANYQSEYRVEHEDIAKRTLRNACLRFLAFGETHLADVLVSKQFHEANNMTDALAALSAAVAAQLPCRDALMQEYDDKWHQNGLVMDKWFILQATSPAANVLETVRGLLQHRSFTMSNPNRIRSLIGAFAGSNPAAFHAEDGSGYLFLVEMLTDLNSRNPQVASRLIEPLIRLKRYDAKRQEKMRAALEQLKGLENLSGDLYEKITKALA

NC1CCc2c(Br)cccc2CC1=O (stereo not shown) [21e]
Ki (P. falciparum rPfAM1): 1 ± 0.04 µM
Ki [1]: > 100 µM
IC50 [2]: 104 ± 7 µM
Ki (pAPN from porcine kidney): 0.02 µM
IC50 [3]: 56 ± 7 µM
Ki (E. coli rEcPepN): 4.59 ± 0.17 µM
Ki (P. falciparum rPfAM17): > 100 µM
